One test addresses T1, H1299 cell pMer (Homo sapiens, UniProt Q12866).
T1 construct: endogenous in cells; host or cells: H1299
T1 sequence (Q12866 21-999): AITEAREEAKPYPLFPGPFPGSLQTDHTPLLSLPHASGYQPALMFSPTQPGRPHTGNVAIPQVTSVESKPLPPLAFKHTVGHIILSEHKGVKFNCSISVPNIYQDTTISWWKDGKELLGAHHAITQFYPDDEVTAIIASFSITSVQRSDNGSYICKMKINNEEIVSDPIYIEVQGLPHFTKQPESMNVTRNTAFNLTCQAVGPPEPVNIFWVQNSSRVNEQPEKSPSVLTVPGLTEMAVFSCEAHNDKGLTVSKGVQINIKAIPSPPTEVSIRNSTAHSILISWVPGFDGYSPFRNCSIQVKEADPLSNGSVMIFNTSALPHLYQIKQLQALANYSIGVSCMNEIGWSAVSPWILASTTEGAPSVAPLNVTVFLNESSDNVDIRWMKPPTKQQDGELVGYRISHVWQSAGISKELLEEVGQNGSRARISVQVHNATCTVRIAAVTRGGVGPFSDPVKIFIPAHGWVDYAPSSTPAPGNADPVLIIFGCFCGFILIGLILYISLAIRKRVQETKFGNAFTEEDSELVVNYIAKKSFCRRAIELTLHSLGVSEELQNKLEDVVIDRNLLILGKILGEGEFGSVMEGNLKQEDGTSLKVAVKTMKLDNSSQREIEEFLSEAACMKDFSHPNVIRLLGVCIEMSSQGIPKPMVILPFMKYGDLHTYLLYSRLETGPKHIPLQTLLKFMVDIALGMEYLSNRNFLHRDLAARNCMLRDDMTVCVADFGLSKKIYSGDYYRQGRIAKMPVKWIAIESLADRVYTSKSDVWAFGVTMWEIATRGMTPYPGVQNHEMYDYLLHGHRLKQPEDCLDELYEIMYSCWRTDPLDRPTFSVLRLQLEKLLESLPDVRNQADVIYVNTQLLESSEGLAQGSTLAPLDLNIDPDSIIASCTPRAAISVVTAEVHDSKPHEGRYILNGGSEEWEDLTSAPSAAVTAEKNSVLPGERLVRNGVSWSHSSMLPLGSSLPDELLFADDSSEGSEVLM
As to the kind of experiment: Inhibitory activity on cell pMer, H1299 cells, Human Mer Mab stimulation, Western Blot. The format is cell-based. Conditions: Human Mer Mab 200 ng/mL. The protocol: H1299 is anon-small cell lung cancer cell.
H1299 cells were inoculated to a 6-well plate (containing 10% FBS 1640 medium, 5×10^5 cells per well) and adherently cultivated at 37° C., and 5% CO2 for 18 hrs. The cells were starved overnight, and then compound solutions with different concentrations were added. The compounds had final concentrations of 0.35, 1.1, 3.3 and 10 nM. […] There was a medium containing 1‰DMSO in the negative control well. The cells were incubated at 37° C., and 5% CO2 for 60 min, and then Human Mer Mab (R&D, final concentration: 200 ng/mL) was added to each well. The cells were further incubated for 60 min, and then the total protein of the cells was extracted for Western Blot experiment. Gray analysis was performed on the results with Image J software, and IC50 values were calculated with GraphPad 5.0 software. The inhibitory activities of the compounds on cell pMer were detected.
Background: A western blot detects proteins with antibodies after separation by electrophoresis.

The next test concerns the target T2, Tyro-3 (h) (Homo sapiens, UniProt Q06418).
T2 sequence (Q06418 41-890): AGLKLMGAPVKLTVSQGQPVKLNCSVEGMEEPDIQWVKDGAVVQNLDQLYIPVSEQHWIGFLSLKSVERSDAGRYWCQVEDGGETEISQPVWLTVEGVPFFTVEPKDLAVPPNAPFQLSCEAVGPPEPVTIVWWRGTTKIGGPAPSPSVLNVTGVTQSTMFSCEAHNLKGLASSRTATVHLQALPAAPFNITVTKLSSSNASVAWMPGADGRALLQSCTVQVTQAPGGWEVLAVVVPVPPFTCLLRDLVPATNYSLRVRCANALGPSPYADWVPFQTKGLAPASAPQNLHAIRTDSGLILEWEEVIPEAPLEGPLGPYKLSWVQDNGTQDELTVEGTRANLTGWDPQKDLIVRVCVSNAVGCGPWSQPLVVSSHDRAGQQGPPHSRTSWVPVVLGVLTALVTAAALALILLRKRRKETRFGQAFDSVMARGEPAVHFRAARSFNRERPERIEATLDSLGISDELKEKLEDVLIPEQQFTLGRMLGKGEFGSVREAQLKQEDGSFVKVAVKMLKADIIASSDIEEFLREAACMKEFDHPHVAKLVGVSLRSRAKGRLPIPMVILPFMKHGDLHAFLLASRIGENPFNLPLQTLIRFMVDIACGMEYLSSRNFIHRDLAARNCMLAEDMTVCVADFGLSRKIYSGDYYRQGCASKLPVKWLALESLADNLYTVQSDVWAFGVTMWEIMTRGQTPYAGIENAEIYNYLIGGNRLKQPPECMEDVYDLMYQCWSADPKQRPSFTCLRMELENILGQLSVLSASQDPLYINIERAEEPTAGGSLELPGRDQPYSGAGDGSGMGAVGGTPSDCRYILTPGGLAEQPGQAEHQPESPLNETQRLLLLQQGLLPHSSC
As to the kind of experiment: Enzymatic activity assay, Tyro-3 (h), [γ-33P]-ATP filter assay. The format is biochemical. Conditions: 10 μM ATP, 40 min room temperature; read-out: Inhibitory activity IC50 Tyro-3(h). The protocol:
Compounds were each dissolved in 100% DMSO to prepare stock solutions with a maximum concentration of 500 μM.
Compound working solutions (50×) were prepared by diluting a compound stock solution to a final concentration of 500, 150, 50, 15, 5, 1.5, 0.5, 0.15 and 0.05 μM.
An enzyme solution with a final concentration of 38 nM was prepared by dissolving Tyro3 (h) enzyme in a mixture of 8 mM MOPS (pH 7.0), 0.2 mM EDTA, 1 mM MnCl2 and 250 μM KVEKIGEGTYGVVYK. A Mg/ATP mixture of 10 mM magnesium acetate and 10 μM [γ-^33P]-ATP was used to activate the enzymatic reaction.
A compound working solution was added to a 384-well plate, with final concentrations of 10,000, 3,000, 1,000, 300, 100, 30, 10, 3 and 1 nM, and then different enzymatic reaction solutions prepared according to the above conditions were added. The reaction solutions were incubated at room temperature for 40 min, and then 0.5% phosphoric acid solutions were added to terminate the reaction. 10 μL of the reaction solution was added dropwise to P30 filter paper, washed 4 times with a 0.425% phosphoric acid solution and once with methanol, and then placed in a scintillation counter for detection. Gray analysis was performed on the results with Image J software, and IC50 values were calculated with GraphPad 5.0 software.

`COc1cc2nccc(Oc3ccc(NC(=O)c4cn(CC5CCOCC5)cc(-c5ccc(C)cc5)c4=O)nc3)c2cc1OC` [Compound 1, N-(5-((6,7-dimethoxyquinolin-4-yl)oxy)pyridin-2-yl)-4-oxo-1-((tetrahydro-2H-pyran-4-yl)methyl)-5-(p-tolyl)-1,4-dihydropyridin-3-carboxamide]: the 50% inhibitory concentration (IC50) (commonly the point on the concentration scale where inhibition reaches its midpoint) against H1299 cell pMer was 1.1 to 3.3 nM; on Tyro-3 (h), 37 nM. For `COc1cc2nccc(Oc3ccc(NC(=O)c4nn(CC5CCOCC5)cc(-c5ccc(C)cc5)c4=O)nc3)c2cc1OC` [Compound 2, N-(5-((6,7-dimethoxyquinolin-4-yl)oxy)pyridin-2-yl)-4-oxo-1-((tetrahydro-2H-pyran-4-yl)methyl)-5-(p-tolyl)-1,4-dihydropyridazin-3-carboxamide] the same measures were 1.1 nM and 13 nM. Consider `COc1cc2nccc(Oc3cnc(NC(=O)c4cn(CC5CCOCC5)cc(-c5ccc(C)cc5)c4=O)nc3)c2cc1OC` [Compound 4, N-(5-((6,7-dimethoxyquinolin-4-yl)oxy)pyrimidin-2-yl)-4-oxo-1-((tetrahydro-2H-pyran-4-yl)methyl)-5-(p-tolyl)-1,4-dihydropyridin-3-carboxamide], for which the figures for the 50% inhibitory concentration (IC50) against H1299 cell pMer and at Tyro-3 (h) were 1.1 nM and 178 nM, respectively. In the case of `COc1cc2nccc(Oc3ccc(NC(=O)c4cn(CC5CCS(=O)(=O)CC5)cc(-c5ccc(C)cc5)c4=O)nc3)c2cc1OC` [Compound 7, N-(5-((6,7-dimethoxyquinolin-4-yl)oxy)pyridin-2-yl)-1-((1,1-dioxotetrahydro-2H-thiopyran-4-yl)methyl)-4-oxo-5-(p-tolyl)-1,4-dihydropyridin-3-carboxamide], the IC50 on Tyro-3 (h) amounted to 192 nM. On the same count and under the same terms, next, `COc1cc2nccc(Oc3ccc(NC(=O)c4cn(CC5CC[S+]([O-])CC5)cc(-c5ccc(C)cc5)c4=O)nc3)c2cc1OC` (centres unmarked) [Compound 8, N-(5-((6,7-dimethoxyquinolin-4-yl)oxy)pyridin-2-yl)-1-((1-oxotetrahydro-2H-thiopyran-4-yl)methyl)-4-oxo-5-(p-tolyl)-1,4-dihydropyridin-3-carboxamide]: 117 nM; `COc1cc2nccc(Oc3ccc(NC(=O)c4cc(-c5ccc(C)cc5)cn(CC5CCOCC5)c4=O)nc3)c2cc1OC` [Compound 13, N-(5-((6,7-dimethoxyquinolin-4-yl)oxy)pyridin 2yl)-2-oxo-1-((tetrahydro-2H-pyran-4-yl)methyl)-5-(p-tolyl)-1,2-dihydropyridin-3-carboxamide]: 94 nM; `COc1cc2nccc(Oc3ccc(NC(=O)c4cn(CC5CCOCC5)cc(-c5ccc(C)cc5)c4=O)nn3)c2cc1OC` [Compound 24, N-(6-((6,7-dimethoxyquinolin-4-yl)oxy)pyridazin-3-yl)-4-oxo-1-((tetrahydro-2H-pyran-4-yl)methyl)-5-(p-tolyl)-1,4-dihydropyridin-3-carboxamide]: 212 nM. The same measure, in the same setting: next, `COc1cc2nccc(Oc3ccc(NC(=O)c4cn(CC5CCOCC5)c5ccccc5c4=O)nc3)c2cc1OC` [Compound 25, N-(5-((6,7-dimethoxyquinolin-4-yl)oxy)pyridin-2-yl)-4-oxo-1-((tetrahydro-2H-pyran-4-yl)methyl)-1,4-dihydroquinolin-3-carboxamide]: 205 nM; `COc1cc2nccc(Oc3ccc(NC(=O)c4cc(CC5CCOCC5)cn(-c5ccc(C)cc5)c4=O)nc3)c2cc1OC` [Compound 26, N-(5-((6,7-dimethoxyquinolin-4-yl)oxy)pyridin-2-yl)-oxo-5-((tetrahydro-2H-pyran-4-yl)methyl)-1-(p-tolyl)-1,2-dihydropyridin-3-carboxamide]: 48 nM. Compound `COc1cc2nccc(Oc3ccc(NC(=O)c4cn(C5CCOCC5)cc(-c5ccc(F)cc5)c4=O)nc3)c2cc1OC` [Compound 27, N-(5-((6,7-dimethoxyquinolin-4-yl)oxy)pyridin-2-yl)-5-(4-fluorophenyl)-4-oxo-1-(tetrahydro-2H-pyran-4-yl)-1,4-dihydropyridin-3-carboxamide] came in with an IC50 against H1299 cell pMer of less than 1.1 nM. Take `Cc1ccc(-c2cn(C3CCOCC3)nc(C(=O)Nc3ccc(Oc4ccnc5cc6c(cc45)OCO6)cn3)c2=O)cc1` [Compound 29, N-(5-([1,3]dioxolo[4,5-g]quinolin-8-yloxy)pyridin-2-yl)-4-oxo-1-(tetrahydro-2H-pyran-4-yl)-5-(p-tolyl)-1,4-dihydropyridazin-3-carboxamide]: the concentration for half-maximal inhibition (IC50) at Tyro-3 (h) turned out to be 321 nM. On the same count and under the same terms, next, `Cc1ccc(-c2cn(C3CCOCC3)nc(C(=O)Nc3ccc(Oc4ccnc5cc6c(cc45)OCCO6)cn3)c2=O)cc1` [Compound 30, N-(5-((2,3-dihydro-[1,4]dioxino[2,3-g]quinolin-9-yl)oxy)pyridin-2-yl)-4-oxo-1-(tetrahydro-2H-pyran-4-yl)-5-(p-tolyl)-1,4-dihydropyridazin-3-carboxamide]: 318 nM; `COc1cc2nccc(Oc3cnc(NC(=O)c4nn(C5CCOCC5)cc(-c5ccc(F)cc5)c4=O)nc3)c2cc1OC` [Compound 33, N-(5-((6,7-dimethoxyquinolin-4-yl)oxy)pyrimidin-2-yl)-5-(4-fluorophenyl)-4-oxo-1-(tetrahydro-2H-pyran-4-yl)-1,4-dihydropyridazin-3-carboxamide]: 23 nM.

As for `COc1cc2nccc(Oc3ccc(NC(=O)c4nn(C5CCOCC5)cc(-c5ccc(F)cc5)c4=O)nc3)c2cc1OC` [Compound 34, N-(5-((6,7-dimethoxyquinolin-4-yl)oxy)pyridin-2-yl)-5-(4-fluorophenyl)-4-oxo-1-(tetrahydro-2H-pyran-4-yl)-1,4-dihydropyridazin-3-carboxamide], the half-inhibitory concentration (IC50) at Tyro-3 (h) turned out to be 19 nM.

The record behind these values is patent publication US20210177828A1, “TAM FAMILY KINASE /AND CSF1R KINASE INHIBITOR AND USE THEREOF” (Nanjing Transthera Biosciences Co., Ltd., priority 2018, published 2021).
